Measurements taken from patent publication US11986493B2 (University of Pittsburgh—Of the Commonwealth System of …, priority 2013, dated 2024).

Tested on: subjects with pulmonary hypertension (WHO group I PAH, WHO group III PH)
Experiment: Right heart catheterization: right heart/pulmonary artery hemodynamics, thermodilution cardiac output, PVR and SVR after inhaled NO and nebulized nitrite
Type: in vivo, human
Procedure: A total of 6 subjects with a confirmed diagnosis of pulmonary hypertension and meeting all inclusion/exclusion criteria were enrolled in the study which entailed a single right heart catheterization. The study population consisted of subjects with WHO group I PAH (n=3) and subjects with WHO group III PH (n=3) which received the dose escalation paradigm:
During the study right heart/pulmonary artery hemodynamics were measured as well as noninvasive systemic blood pressure monitoring and simultaneous RV echocardiography. Subjects were tested for the changes in pulmonary vascular resistance (PVR) measured by right heart catheterization and using thermodilution cardiac output measurement at time zero, at times 15, 30 and 45 minutes after completion of each nebulization dose.
Following right heart catheterization, the patient was stabilized for 20 minutes. Baseline blood collections and hemodynamic measurements were performed, followed by treatment with 40 ppm inhaled NO gas for […] with repeat hemodynamic measurements performed.
After stopping inhaled NO gas, a single dose of sildenafil was given if patients were on background sildenafil therapy at previously prescribed doses. 45-minutes after sildenafil dose baseline hemodynamics were performed.
Subjects were monitored carefully during and after the study treatment.
The study was conducted at the 3rd FL Catheterization Laboratory at Presbyterian Hospital of the University of Pittsburgh Medical Center (UPMC). Baseline vasoreactivity was recorded after Inhaled NO at 40 ppm for […]. […] Subjects were instructed to breathe as calmly, and deeply as possible until no more mist was formed in the nebulizer chamber. Subjects were also instructed to hold their breath for approximately 10 seconds after inhalation to allow the study drug to reach deep into the lungs.

[1] = Patient 4, nitrite 45 mg inhaled, 15 min
[2] = Patient 4, nitrite 45 mg inhaled, 30 min
[3] = Patient 4, nitrite 45 mg inhaled, 45 min
[4] = Patient 4, nitrite 45 mg inhaled, 60 min
[5] = Patient 4, nitrite 90 mg inhaled, 15 min
[6] = Patient 4, nitrite 90 mg inhaled, 30 min
[7] = Patient 4, nitrite 90 mg inhaled, 45 min
[8] = Patient 4, nitrite 90 mg inhaled, 60 min
[9] = Patient 5, nitrite 45 mg inhaled, 15 min
[10] = Patient 5, nitrite 45 mg inhaled, 30 min
[11] = Patient 5, nitrite 45 mg inhaled, 45 min
[12] = Patient 5, nitrite 45 mg inhaled, 60 min

For `O=NO` [nitrite, sodium nitrite], the mPAP (Patient 3, nitrite 90 mg inhaled, 60 min) was 37.34, the CI [1] was 3.07 and the CO [1] was 5.37. It also gave a PAD [1] of 26, a PAS [1] of 69 and a PCWP [1] of 7. The PVR [1] was 6.21, the PVR/SVR [1] was 0.36 and the RA [1] was 3. For the same compound, the RVD [1] was 3, the RVS [1] was 74 and the SVR [1] was 17.01. The TPR [1] was 7.51, the mPAP [1] was 40.34 and the CI [2] was 2.69. It also gave a CO [2] of 4.7, a PAD [2] of 24 and a PAS [2] of 70. The PCWP [2] was 8, the PVR [2] was 6.67 and the PVR/SVR [2] was 0.34. The RA [2] was 4, the RVD [2] was 3 and the RVS [2] was 67. For the same compound, the SVR [2] was 19.58, the TPR [2] was 8.37 and the mPAP [2] was 39.34. It also gave a CI [3] of 2.71, a CO [3] of 4.75 and a PAD [3] of 23. For the same compound, the PAS [3] was 68, the PCWP [3] was 9 and the PVR [3] was 6.11. It also gave a PVR/SVR [3] of 0.32, an RA [3] of 2 and an RVD [3] of 2. It also gave an RVS [3] of 68, an SVR [3] of 18.95 and a TPR [3] of 8.00. For the same compound, the mPAP [3] was 38.01, the CI [4] was 3.03 and the CO [4] was 5.31. For the same compound, the PAD [4] was 21, the PAS [4] was 69 and the PCWP [4] was 8. The PVR [4] was 5.46, the PVR/SVR [4] was 0.33 and the RA [4] was 3. The RVD [4] was 2, the RVS [4] was 68 and the SVR [4] was 16.57. It also gave a TPR [4] of 6.97, a mPAP [4] of 37.01 and a CI [5] of 3.08. For the same compound, the CO [5] was 5.39, the PAD [5] was 23 and the PAS [5] was 71. The PCWP [5] was 8, the PVR [5] was 5.75 and the PVR/SVR [5] was 0.39. The RA [5] was 3, the RVD [5] was 3 and the RVS [5] was 62. For the same compound, the SVR [5] was 14.78, the TPR [5] was 7.24 and the mPAP [5] was 39.01. The CI [6] was 3.03, the CO [6] was 5.3 and the PAD [6] was 22. It also gave a PAS [6] of 70, a PCWP [6] of 7 and a PVR [6] of 5.85. The PVR/SVR [6] was 0.37, the RA [6] was 4 and the RVD [6] was 3. It also gave an RVS [6] of 70, an SVR [6] of 15.73 and a TPR [6] of 7.17. For the same compound, the mPAP [6] was 38.01, the CI [7] was 3.08 and the CO [7] was 5.39. The PAD [7] was 23, the PAS [7] was 69 and the PCWP [7] was 7. The PVR [7] was 5.81, the PVR/SVR [7] was 0.39 and the RA [7] was 2. It also gave an RVD [7] of 2, an RVS [7] of 74 and an SVR [7] of 14.91. For the same compound, the TPR [7] was 7.11, the mPAP [7] was 38.34 and the CI [8] was 3.03. It also gave a CO [8] of 5.3, a PAD [8] of 21 and a PAS [8] of 67. The PCWP [8] was 8, the PVR [8] was 5.35 and the PVR/SVR [8] was 0.33. The RA [8] was 2, the RVD [8] was 3 and the RVS [8] was 70. For the same compound, the SVR [8] was 16.04, the TPR [8] was 6.86 and the mPAP [8] was 36.34. For the same compound, the CI [9] was 2.80, the CO [9] was 4.95 and the PAD [9] was 16. The PAS [9] was 66, the PCWP [9] was 3 and the PVR [9] was 5.99. It also gave a PVR/SVR [9] of 0.48, an RA [9] of 1 and an RVD [9] of 1. For the same compound, the RVS [9] was 68, the SVR [9] was 12.53 and the TPR [9] was 6.60. It also gave a mPAP [9] of 32.67, a CI [10] of 2.50 and a CO [10] of 4.43. For the same compound, the PAD [10] was 15, the PAS [10] was 66 and the PCWP [10] was 3. The PVR [10] was 6.55, the PVR/SVR [10] was 0.44 and the RA [10] was 1. For the same compound, the SVR [10] was 14.75, the TPR [10] was 7.22 and the mPAP [10] was 32.00. The CI [11] was 2.75, the CO [11] was 4.86 and the PA sat [11] was 60. The PAD [11] was 14, the PAS [11] was 67 and the PCWP [11] was 4. The PVR [11] was 5.69, the PVR/SVR [11] was 0.42 and the RA [11] was 1. For the same compound, the SVR [11] was 13.65, the TPR [11] was 6.52 and the mPAP [11] was 31.67. It also gave a CI [12] of 2.52, a CO [12] of 4.46 and a PAD [12] of 17. The PAS [12] was 74.
